Laboratory results from publication PMC9898749, “Cryo-EM structure of the plant nitrate transporter AtCLCa reveals characteristics of the anion-binding site and the ATP-binding pocket” (The Journal of Biological Chemistry, 2022).

Experiments:
AtCLCa = target: T1, AtCLCa (Arabidopsis thaliana, UniProt P92941); assay: cryo-EM structure, […] Å; assay type: binding; conditions: 150 mM NaNO3; GDN detergent; pH 7.5; three anion sites (external, central, internal) in transport pathway; identity assigned from buffer; nitrates placed by docking overlapping EM densities
T1 construct: gene CLC-A; HEK293F (BacMam); purified in GDN; homodimer; modelled residues 53-626, 636-737, 744-766
T1 sequence (P92941 1-775): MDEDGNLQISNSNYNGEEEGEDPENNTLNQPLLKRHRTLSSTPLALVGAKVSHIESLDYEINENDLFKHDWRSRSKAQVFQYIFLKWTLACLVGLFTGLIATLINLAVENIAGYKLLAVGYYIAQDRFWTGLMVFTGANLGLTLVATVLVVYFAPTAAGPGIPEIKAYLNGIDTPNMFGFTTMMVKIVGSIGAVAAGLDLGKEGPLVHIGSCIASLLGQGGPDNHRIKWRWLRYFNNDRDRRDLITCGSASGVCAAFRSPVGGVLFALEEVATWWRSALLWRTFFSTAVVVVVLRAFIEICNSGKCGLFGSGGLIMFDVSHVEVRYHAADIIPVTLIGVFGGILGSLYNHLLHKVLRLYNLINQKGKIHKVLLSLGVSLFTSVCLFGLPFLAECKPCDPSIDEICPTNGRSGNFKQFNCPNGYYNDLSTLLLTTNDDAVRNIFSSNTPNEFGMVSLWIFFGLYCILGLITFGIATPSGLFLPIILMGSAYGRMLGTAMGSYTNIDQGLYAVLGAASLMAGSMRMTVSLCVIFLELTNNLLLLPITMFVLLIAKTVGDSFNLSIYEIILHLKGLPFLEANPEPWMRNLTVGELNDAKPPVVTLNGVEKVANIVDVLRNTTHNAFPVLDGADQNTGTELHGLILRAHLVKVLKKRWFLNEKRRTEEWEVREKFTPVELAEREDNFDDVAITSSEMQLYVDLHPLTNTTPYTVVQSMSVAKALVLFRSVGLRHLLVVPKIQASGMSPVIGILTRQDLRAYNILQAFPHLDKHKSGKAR

[1] = target: the molecule itself; assay: cryo-EM structure; AtCLCa 4.2 mg/ml in 20 mM Hepes pH 7.5, 150 mM NaNO3, 0.06% GDN; endogenous Mg2+-ATP bound; C2 symmetry imposed; 2.8 Å

O=[N+]([O-])O [nitrate]
cryo-EM structure, 2.8 Å (AtCLCa): The ions are most likely nitrate because we purified the protein in a buffer

B1: Arabidopsis thaliana CLCa (natural protein, UniProt P92941 1-775, looked up)
chain: T1 sequence (P92941 1-775)
notes: AtCLCa, Arabidopsis thaliana chloride channel protein CLC-a, nitrate/proton antiporter; NCBI NP_198905.1; full length (residues 1-775; modelled residues 53-626, 636-737, 744-766); A C-terminal 3C cleavage site stands between the protein and the strep tag; Copurified with endogenous Mg2+-ATP; purified in 150 mM sodium nitrate; also called AtCLCa; source: HEK293F cells, BacMam system, purified …
stoichiometry N [1]: 2
